Test results as given in patent publication US10703764B2, “Benzopiperazine compositions as BET bromodomain inhibitors” (FORMA Therapeutics, Inc., priority 2013, dated 2020).
pIC50: −log10 of the molar value.

How the values were obtained:
BRD4 BD2 = target: T1, BRD4 BD2 (Homo sapiens, UniProt O60885); assay: AlphaScreen binding assay, BRD4 Bromodomain 2
T1 construct: made in house
How it was run: (§1)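 Compound dilution series were mixed with His-tagged BRD4 bromodomain and biotinylated tetra-acetylated H4 (1-21) peptide at pH 7.3 (BD1 and peptide at 50 nM, BD2 and peptide at 100 nM). Donor and acceptor beads were then added, and plates were equilibrated at least 1 h before reading. IC50 values were fitted with a four-parameter logistic model.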

BRD4 BD1 = target: T2, BRD4 BD1 (Homo sapiens, UniProt O60885); assay: AlphaScreen binding assay, BRD4 Bromodomain 1
T2 construct: made in house
How it was run: as §1

Structure (SMILES)	pIC50 (BRD4 BD2)	pIC50 (BRD4 BD1)
COC(=O)N1c2ccc(-c3ccc(S(=O)(=O)CCO)cc3)cc2N(C(=O)C2CC2)C[C@@H]1C [Example I-462]	6.30 to 7.30	5.00 to 6.00
COC(=O)N1C[C@H](C)N(C(C)=O)c2ccc(-c3ccc(S(C)(=O)=O)cc3)cc21 [Example I-235]	6.30 to 7.30	5.00 to 6.00
CC(=O)N1c2ccc(-c3ccc(S(C)(=O)=O)cc3)cc2N(C(=O)c2ccc(OC(F)(F)F)cc2)C[C@@H]1C [Example I-879]	< 6.30	< 5.00
CC(=O)N1c2ccc(-c3ccc(F)c(C(=O)NC(C)C)c3)cc2N(C(=O)c2ccco2)C[C@@H]1C [Example I-829]	> 7.30	5.00 to 6.00
COC(=O)N1c2ccc(-c3cnn(CCS(C)(=O)=O)c3)cc2N(C(=O)Oc2ccccn2)C[C@@H]1C [Example I-1319]	6.30 to 7.30	5.00 to 6.00
CC(=O)N1c2ccc(-c3ccc(=O)n(C)c3)cc2N(C(=O)c2ccco2)C[C@@H]1C [Example I-411]	6.30 to 7.30	5.00 to 6.00
CC(=O)N1c2ccccc2N(C(=O)c2csc(C)n2)C[C@@H]1C [Example I-705]	< 6.30	< 5.00
COC(=O)N1c2ccc(-c3cnn(CC4CCC4)c3)cc2N(C(=O)OC(C)C)C[C@@H]1C [Example I-635]	< 6.30	5.00 to 6.00
CC(=O)N1c2ccccc2N(S(=O)(=O)c2cccc(C(F)(F)F)c2)C[C@@H]1C [Example I-947]	< 6.30	< 5.00
COC(=O)N1c2ccc(-c3ccc(S(C)(=O)=O)cc3)cc2N(C(=O)Oc2cccnc2)C[C@@H]1C [Example I-1276]	6.30 to 7.30	5.00 to 6.00
CC(=O)N1c2ccccc2N(S(=O)(=O)c2ccccc2C#N)C[C@@H]1C [Example I-943]	< 6.30	< 5.00
CC(=O)N1c2ccc(-c3cnn(C4COC4)c3)cc2N(C(=O)[C@H]2CC2(Cl)Cl)C[C@@H]1C (single isomer, unassigned) [Example I-113]	< 6.30	< 5.00
CC(=O)N1c2ccc(-c3ccc(S(C)(=O)=O)cc3)cc2N(C(=O)c2cc3cc(OC(F)(F)F)ccc3[nH]2)CC1C (stereo not shown) [Example I-788]	< 6.30	< 5.00
CC(=O)N1c2ccc(-c3ccns3)cc2N(C(=O)c2ccco2)C[C@@H]1C [Example I-434]	6.30 to 7.30	5.00 to 6.00
CC(=O)N1c2ccc(-c3cnn(C4COC4)c3)cc2N(C(=O)OCC2CC2(C)C)C[C@@H]1C (stereo partly drawn) [Example I-73, (2,2-dimethylcyclopropyl)methyl (3S)-4-acetyl-3-methyl-7-(1-(oxetan-3-yl)-1H-pyrazol-4-yl)-3,4-dihydroquinoxaline-1(2H)-carboxylate]	6.30 to 7.30	5.00 to 6.00
CC(=O)N1c2ccc(-c3ccc(S(C)(=O)=O)cc3)cc2N(C(=O)c2csc(-c3ccccc3)n2)C[C@@H]1C [Example I-885]	< 6.30	< 5.00
COc1ccc2[nH]c(C(=O)N3CC(C)N(C(C)=O)c4ccc(-c5ccc(S(C)(=O)=O)cc5)cc43)cc2c1 (stereo not shown) [Example I-882]	6.30 to 7.30	5.00 to 6.00
CC(=O)N1c2ccccc2N(S(=O)(=O)Cc2cccc(Cl)c2)C[C@@H]1C [Example I-955]	< 6.30	< 5.00
CC(=O)N1c2ccc(-c3ccc(S(C)(=O)=O)cc3)cc2N(C(=O)c2ccccn2)C[C@@H]1C [Example I-782]	6.30 to 7.30	< 5.00
CC(=O)N1c2ccccc2N(Cc2ccccn2)C[C@@H]1C [Example I-913]	< 6.30	< 5.00
CC(=O)N1c2ccccc2N(Cc2cccc(C(F)(F)F)c2)C[C@@H]1C [Example I-899]	< 6.30	< 5.00

Structure (SMILES)	pIC50 (BRD4 BD2)	pIC50 (BRD4 BD1)
COC(=O)N1c2ccc(-c3ccc4c(c3)CCN4S(C)(=O)=O)cc2N(C(=O)Oc2cccnc2)C[C@@H]1C [Example I-1291]	< 6.30	5.00 to 6.00
CC(=O)N1c2ccc(-c3ccc(Oc4ccccc4)cc3)cc2N(C(=O)c2ccco2)C[C@@H]1C [Example I-813]	6.30 to 7.30	5.00 to 6.00
CC(=O)N1c2ccc(-c3ccc(S(C)(=O)=O)cc3)cc2N(C(=O)c2ccc(CN(C)C)o2)C[C@@H]1C [Example I-984]	6.30 to 7.30	< 5.00
COc1cncc(-c2ccc3c(c2)N(C(=O)c2ccco2)C[C@H](C)N3C(C)=O)c1 [Example I-835]	6.30 to 7.30	5.00 to 6.00
CC(C)OC(=O)N1C[C@H](C)N(C(=O)C2CC2)c2ccc(-c3cnn(CC(=O)N4CCCCC4)c3)cc21 [Example I-614]	6.30 to 7.30	5.00 to 6.00
CC(=O)N1c2ccc(-c3cnn(C4CC4)c3)cc2N(C(=O)Oc2ncccc2C(F)(F)F)C[C@@H]1C [Example I-1188]	< 6.30	< 5.00
CC(=O)N1c2ccc(-c3cnn(CC#N)c3)cc2N(C(=O)C2CC2)C[C@@H]1C [Example I-675]	6.30 to 7.30	5.00 to 6.00
CC(=O)N1c2ccc(-c3cnn(C(C)(C)C(N)=O)c3)cc2N(C(=O)C2CC2)C[C@@H]1C [Example I-648]	6.30 to 7.30	5.00 to 6.00
CC(C)OC(=O)N1C[C@H](C)N(C(=O)C2CC2)c2ccc(-c3cnn(CCNS(C)(=O)=O)c3)cc21 [Example I-613]	< 6.30	5.00 to 6.00
CC(=O)N1c2ccc(-c3ccc(S(C)(=O)=O)cc3)nc2N(C(=O)OC(C)C)C[C@@H]1C [Example I-254]	< 6.30	5.00 to 6.00
CC(=O)N1c2ccc(Nc3ccccc3)cc2N(C(=O)c2ccco2)C[C@@H]1C [Example I-991]	6.30 to 7.30	5.00 to 6.00
COCCOC(=O)N1C[C@H](C)N(C(C)=O)c2ccc(-c3ccc(S(C)(=O)=O)cc3)cc21 [Example I-249]	< 6.30	5.00 to 6.00
CC(=O)N1c2ccc(-c3ccc(S(C)(=O)=O)cc3)cc2N(c2ncccn2)C[C@@H]1C [Example I-45, (S)-1-(2-methyl-6-(4-(methylsulfonyl)phenyl)-4-(pyrimidin-2-yl)-3,4-dihydroquinoxalin-1(2H)-yl)ethanone]	< 6.30	5.00 to 6.00
CC(=O)N1c2ccccc2N(C(=O)Cc2ccc(-c3ccccc3)cc2)C[C@@H]1C [Example I-707]	< 6.30	< 5.00
CC(=O)N1c2ccc(-c3ccc(S(=O)(=O)CC(=O)N(C)C)cc3)cc2N(C(=O)c2ccco2)C[C@@H]1C [Example I-433]	6.30 to 7.30	6.00 to 7.00
COC(=O)N1c2ccc(-c3ccc(S(=O)(=O)CCN)cc3)cc2N(C(=O)OC(C)C)C[C@@H]1C [Example I-488]	6.30 to 7.30	6.00 to 7.00
CC(=O)N1c2ccc(-c3ccc(S(C)(=O)=O)cc3)cc2N(C)C[C@@H]1C [Example I-104, (S)-1-(2,4-dimethyl-6-(4-(methylsulfonyl)phenyl)-3,4-dihydroquinoxalin-1(2H)-yl)ethanone]	< 6.30	< 5.00
CC(=O)N1c2ccc(-c3ccc4cn(C)nc4c3)cc2N(C(=O)c2ccco2)C[C@@H]1C [Example I-840]	6.30 to 7.30	5.00 to 6.00
CC(=O)N1c2ccccc2N(C(=O)Cc2csc3ccc(Cl)cc23)C[C@@H]1C [Example I-739]	< 6.30	< 5.00
COC(=O)N1c2ccc(-c3ccc4c(c3)CCN4S(C)(=O)=O)cc2N(C(=O)Oc2ccccn2)C[C@@H]1C [Example I-1329]	6.30 to 7.30	5.00 to 6.00
